In paper PMC8552601, “Entamoeba Chitinase is Required for Mature Round Cyst Formation” (Microbiology Spectrum, 2021):

Tests used:
Assay type in all cases: biochemical
[1] = biological target: T1, Entamoeba invadens chitinase 1 (rEiCht1) (Entamoeba invadens, UniProt A0A0A1U6V8); test: fluorogenic 4MU-(GlcNAc)[…] hydrolysis assay with purified recombinant enzyme
T1 construct: gene EIN_404540

[2] = biological target: T2, Entamoeba invadens chitinase 4 (rEiCht4) (Entamoeba invadens, UniProt A0A0A1TXF4); test: as above
T2 construct: gene EIN_136020

[3] = biological target: T1, Entamoeba invadens chitinase 1 (rEiCht1); test: 4-MU release by purified recombinant enzyme, specific activity
[4] = biological target: T2, Entamoeba invadens chitinase 4 (rEiCht4); test: as above

T1 sequence (A0A0A1U6V8 entry or part of it): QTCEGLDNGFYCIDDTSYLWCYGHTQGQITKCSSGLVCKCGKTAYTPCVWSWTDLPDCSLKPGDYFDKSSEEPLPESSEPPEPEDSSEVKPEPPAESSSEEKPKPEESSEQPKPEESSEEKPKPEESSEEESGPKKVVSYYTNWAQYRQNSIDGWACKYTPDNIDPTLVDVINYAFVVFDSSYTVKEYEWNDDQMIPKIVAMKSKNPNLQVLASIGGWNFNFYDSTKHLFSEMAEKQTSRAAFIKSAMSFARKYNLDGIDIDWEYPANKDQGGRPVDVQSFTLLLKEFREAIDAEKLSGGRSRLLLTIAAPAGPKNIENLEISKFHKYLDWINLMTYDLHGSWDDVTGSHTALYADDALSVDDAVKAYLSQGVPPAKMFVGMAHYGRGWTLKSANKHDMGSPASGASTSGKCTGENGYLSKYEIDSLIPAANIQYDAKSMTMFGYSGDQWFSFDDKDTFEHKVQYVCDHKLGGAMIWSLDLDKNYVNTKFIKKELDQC
T2 sequence (A0A0A1TXF4 entry or part of it): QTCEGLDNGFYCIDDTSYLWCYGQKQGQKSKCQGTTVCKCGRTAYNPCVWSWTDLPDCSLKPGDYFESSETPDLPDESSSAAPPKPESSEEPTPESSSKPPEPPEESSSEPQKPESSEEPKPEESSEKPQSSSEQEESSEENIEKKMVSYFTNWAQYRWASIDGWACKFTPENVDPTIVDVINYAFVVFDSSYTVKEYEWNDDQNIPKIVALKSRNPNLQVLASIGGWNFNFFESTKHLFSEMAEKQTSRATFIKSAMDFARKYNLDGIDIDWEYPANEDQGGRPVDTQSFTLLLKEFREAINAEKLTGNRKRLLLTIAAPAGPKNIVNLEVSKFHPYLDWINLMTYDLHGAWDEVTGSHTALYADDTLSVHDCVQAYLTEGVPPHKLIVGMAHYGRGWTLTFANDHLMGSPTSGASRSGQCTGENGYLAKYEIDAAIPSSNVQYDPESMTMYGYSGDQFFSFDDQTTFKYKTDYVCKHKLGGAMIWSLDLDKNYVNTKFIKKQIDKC

SMILES: Cc1nn(C)c(C)c1NS(=O)(=O)c1c(Cl)cc(-c2ccnc(N3CCNCC3)c2)cc1Cl [D-B-09, 2,6-dichloro-4-[2-(1-piperazinyl)-4-pyridinyl]-N-(1,3,5-trimethyl-1H-pyrazol-4-yl)-benzenesulfonamide]
- IC50 [1]: 800 ± 200 nM
- IC50 [2]: 2500 ± 1300 nM

SMILES: CC(=O)N[C@H]1[C@H](Oc2ccc3c(C)cc(=O)oc3c2)O[C@H](CO)[C@@H](O[C@@H]2O[C@H](CO)[C@@H](O[C@@H]3O[C@H](CO)[C@@H](O)[C@H](O)[C@H]3NC(C)=O)[C@H](O)[C@H]2NC(C)=O)[C@@H]1O [4-methylumbelliferyl β-D-N,N′,N′′-triacetylchitotrioside]
- 4-MU release by purified recombinant enzyme, specific activity [3]: 11.7 ± 5.3 μmol/min/mg protein
- 4-MU release by purified recombinant enzyme, specific activity [4]: 6.3 ± 1.1 μmol/min/mg protein
